Experiment: recombinant UMI read abundance after kanamycin selection (control-corrected) (log10(CPM+1)); higher = more efficient recombination; extreme values may be limits of the assay; sequences stand for … in AGTGCAGAGAAAATCGGCCAGTTTTCTCTGCCTGCAGTCCGCATGCCGTGGGACCCCTTGGGTTCTAACCTGTTGCCTAGATTTATGCAGCGGACTGCCTTTCTCCCAAAGTGATAAACCGG…AGGTTGGTTTCACT; site = the 11-nt donor
Protocol: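 Pooled E. coli donor-specificity screen for the IS621 bridge recombinase. Each library member carries a reprogrammed 11-nt donor and a full-length LE bridge RNA expressed in cis from the natural promoter, with a paired donor-binding loop (8-nt LDG + 4-nt RDG) and a target-binding loop fixed to T5. It is co-electroporated with a T5 target plasmid; recombinase is induced with 0.07 mM IPTG and recombinants are selected on kanamycin. UMIs are counted as CPM, averaged over two biological replicates and corrected by the unselected control. Molecule = full bridge RNA written as DNA, built from the T5 scaffold: LDG = donor specificity nt 1-8, RDG = reverse complement of nt 8-11.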
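Also: IS621 bridge recombinase in Escherichia coli cells against a fixed T5 target plasmid.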

In order of rising “recombinant UMI read abundance (log10)” value:
1. ACCACCGCATGGACCGGTTTTCCCGGTAATCCGTATTTGCG (site GCCACCGCTCG)  0
2. ACCCGAACATGGACCGGTTTTCCCGGTAATCCGTATTTGTC (site ACACGAACTGA)  0
3. ACCCGAACATGGACCGGTTTTCCCGGTAATCCGTATTTGTC (site ACGCGAACTGA)  0
4. ACCCGAACATGGACCGGTTTTCCCGGTAATCCGTATTTGTC (site ACTCGAACTGA)  0
5. ACCCTAGCATGGACCGGTTTTCCCGGTAATCCGTATTTGTT (site ACCCTAGCTAA)  0
6. ACCCTGTCATGGACCGGTTTTCCCGGTAATCCGTATTTGGG (site ACCCTGTCTCC)  0
7. ACCTTTCCATGGACCGGTTTTCCCGGTAATCCGTATTTGGT (site ACCTTTCCTAC)  0
8. ACGAAAACATGGACCGGTTTTCCCGGTAATCCGTATTTGCT (site CCGAAAACTAG)  0
9. ACGAAAACATGGACCGGTTTTCCCGGTAATCCGTATTTGCT (site TCGAAAACTAG)  0
10. ACGAATCCATGGACCGGTTTTCCCGGTAATCCGTATTTGTT (site CGGAATCCTAA)  0
11. ACCTACACATGGACCGGTTTTCCCGGTAATCCGTATTTGGG (site ACCTAAACTCC)  0.00329
12. ACCTAGACATGGACCGGTTTTCCCGGTAATCCGTATTTGGC (site ACCTAGACTTC)  0.00402
13. ACCCAGACATGGACCGGTTTTCCCGGTAATCCGTATTTGGG (site ACCGAGACTCC)  0.00445
14. ACCCTAGCATGGACCGGTTTTCCCGGTAATCCGTATTTGTT (site AGCCTAGCTAA)  0.00512
15. ACCCAGACATGGACCGGTTTTCCCGGTAATCCGTATTTGGG (site ACCTAGACTCC)  0.00599
16. ACCTATACATGGACCGGTTTTCCCGGTAATCCGTATTTGGG (site ACCTAAACTCC)  0.00642
17. ACCTATACATGGACCGGTTTTCCCGGTAATCCGTATTTGGG (site ACCTAGACTCC)  0.0071
18. ACGAGTCCATGGACCGGTTTTCCCGGTAATCCGTATTTGGG (site ACGAGTCCTCC)  0.00727
19. ACCTACACATGGACCGGTTTTCCCGGTAATCCGTATTTGGG (site ACCTAGACTCC)  0.00747
20. ACCAGCCCATGGACCGGTTTTCCCGGTAATCCGTATTTGAT (site ACCAGCCCTAT)  0.0092
21. ACCTAGCCATGGACCGGTTTTCCCGGTAATCCGTATTTGGG (site ACCTAGACTCC)  0.00935
22. ACCTAGCCATGGACCGGTTTTCCCGGTAATCCGTATTTGGG (site ACCTAGCCTCC)  0.00989
23. ACCACCGCATGGACCGGTTTTCCCGGTAATCCGTATTTGCG (site TCCACCGCTCG)  0.0102
24. ACCCAGACATGGACCGGTTTTCCCGGTAATCCGTATTTGGG (site ACCAAGACTCC)  0.0107
25. ACCTAGACATGGACCGGTTTTCCCGGTAATCCGTATTTGGC (site ACCTAGACTCC)  0.0128
26. ACCTAAACATGGACCGGTTTTCCCGGTAATCCGTATTTGGG (site ACCTATACTCC)  0.0143
27. ACCTATACATGGACCGGTTTTCCCGGTAATCCGTATTTGGG (site ACCTATACTCC)  0.0144
28. ACCTAAACATGGACCGGTTTTCCCGGTAATCCGTATTTGGG (site ACCTAGACTCC)  0.0149
29. ACCCTAGCATGGACCGGTTTTCCCGGTAATCCGTATTTGTT (site ATCCTAGCTAA)  0.016
30. ACCTAAACATGGACCGGTTTTCCCGGTAATCCGTATTTGGG (site ACCTACACTCC)  0.0196
31. ACCTAGACATGGACCGGTTTTCCCGGTAATCCGTATTTGCG (site ACCTAGACTCA)  0.0199
32. ACCTACACATGGACCGGTTTTCCCGGTAATCCGTATTTGGG (site ACCTATACTCC)  0.0213
33. ACCTAGACATGGACCGGTTTTCCCGGTAATCCGTATTTGCG (site ACCTAGACTCC)  0.0218
34. ACCGAGCCATGGACCGGTTTTCCCGGTAATCCGTATTTGCG (site ACCGAGCCTCG)  0.0257
35. ACCTAGCCATGGACCGGTTTTCCCGGTAATCCGTATTTGGG (site ACCTAGGCTCC)  0.0311
36. ACCCTAGCATGGACCGGTTTTCCCGGTAATCCGTATTTGTT (site AACCTAGCTAA)  0.0322
37. ACCTACACATGGACCGGTTTTCCCGGTAATCCGTATTTGGG (site ACCTACACTCC)  0.0331
38. ACCCAGACATGGACCGGTTTTCCCGGTAATCCGTATTTGGG (site ACCCAGACTCC)  0.036
39. ACCTAGCCATGGACCGGTTTTCCCGGTAATCCGTATTTGGG (site ACCTAGTCTCC)  0.0502
40. ACCTATACATGGACCGGTTTTCCCGGTAATCCGTATTTGGG (site ACCTACACTCC)  0.0606
41. ACCTAGACATGGACCGGTTTTCCCGGTAATCCGTATTTGTG (site ACCTAGACTCC)  0.114
42. ACCTCATCATGGACCGGTTTTCCCGGTAATCCGTATTTGGT (site ACCTCATCTAC)  0.128
43. ACCTCCGCATGGACCGGTTTTCCCGGTAATCCGTATTTGAG (site ACCTCCGCTCT)  0.147
44. ACCTAGACATGGACCGGTTTTCCCGGTAATCCGTATTTGTG (site ACCTAGACTCT)  0.22
45. ACCTAAACATGGACCGGTTTTCCCGGTAATCCGTATTTGGG (site ACCTAAACTCC)  0.256
46. ACCTAGACATGGACCGGTTTTCCCGGTAATCCGTATTTGCG (site ACCTAGACTCT)  0.262
47. ACCGTGGCATGGACCGGTTTTCCCGGTAATCCGTATTTGGA (site ACCGTGGCTTC)  0.325
48. ACCTCTCCATGGACCGGTTTTCCCGGTAATCCGTATTTGCA (site ACCTCTCCTTG)  0.367
49. ACCTAGACATGGACCGGTTTTCCCGGTAATCCGTATTTGTG (site ACCTAGACTCG)  0.469
50. ACGAGGCCATGGACCGGTTTTCCCGGTAATCCGTATTTGCC (site ACGAGGCCTGG)  0.486
51. ACCTAGACATGGACCGGTTTTCCCGGTAATCCGTATTTGGC (site ACCTAGACTAC)  0.532
52. ACCGTAGCATGGACCGGTTTTCCCGGTAATCCGTATTTGTG (site ACCGTAGCTCA)  0.533
53. ACGAAAACATGGACCGGTTTTCCCGGTAATCCGTATTTGCT (site GCGAAAACTAG)  0.581
54. ACGACTACATGGACCGGTTTTCCCGGTAATCCGTATTTGAC (site AGGACTACTGT)  0.613
55. ACCTAGACATGGACCGGTTTTCCCGGTAATCCGTATTTGTG (site ACCTAGACTCA)  0.799
56. ACCACTCCATGGACCGGTTTTCCCGGTAATCCGTATTTGTA (site ACCACTCCTTA)  0.852
57. ACCGTATCATGGACCGGTTTTCCCGGTAATCCGTATTTGCA (site ACTGTATCTTG)  0.874
58. ACCGTATCATGGACCGGTTTTCCCGGTAATCCGTATTTGCA (site ACGGTATCTTG)  0.962
59. ACGACTACATGGACCGGTTTTCCCGGTAATCCGTATTTGAC (site AAGACTACTGT)  1.19
60. ACGACCACATGGACCGGTTTTCCCGGTAATCCGTATTTGTT (site ACGACCACTAA)  1.29
61. ACGAATCCATGGACCGGTTTTCCCGGTAATCCGTATTTGTT (site ACGAATCCTAA)  1.32
62. ACCCATACATGGACCGGTTTTCCCGGTAATCCGTATTTGAA (site ACCCATACTTT)  1.34
63. ACCTGGACATGGACCGGTTTTCCCGGTAATCCGTATTTGAG (site ACCTGGACTCT)  1.41
64. ACCGTTACATGGACCGGTTTTCCCGGTAATCCGTATTTGTC (site ACCGTTACTGA)  1.49
65. ACCTAGACATGGACCGGTTTTCCCGGTAATCCGTATTTGCG (site ACCTAGACTCG)  1.58
66. ACGACTACATGGACCGGTTTTCCCGGTAATCCGTATTTGAC (site ATGACTACTGT)  1.69
67. ACGAAAACATGGACCGGTTTTCCCGGTAATCCGTATTTGCT (site ACGAAAACTAG)  1.81
68. ACCTAGACATGGACCGGTTTTCCCGGTAATCCGTATTTGGC (site ACCTAGACTGC)  1.82
69. ACCCGAACATGGACCGGTTTTCCCGGTAATCCGTATTTGTC (site ACCCGAACTGA)  1.95
70. ACCGTATCATGGACCGGTTTTCCCGGTAATCCGTATTTGCA (site ACCGTATCTTG)  2.45
71. ACGACTACATGGACCGGTTTTCCCGGTAATCCGTATTTGAC (site ACGACTACTGT)  2.45
72. ACCGTATCATGGACCGGTTTTCCCGGTAATCCGTATTTGCA (site ACAGTATCTTG)  2.58
